Where two headings read alike, the source gives them in different places.
Key:
Zymoseptoria tritici = assay: Fungicidal activity: leaf blotch of wheat (SEPTTR), wheat seedlings, booth sprayer to run-off or track spray; type: in vivo; details: Low-Volume Cereal Activity at 121.5 g/H
Puccinia triticina = assay: Fungicidal activity: wheat brown rust (PUCCRT), wheat seedlings, booth sprayer to run-off or track spray; type: in vivo; details: Low-Volume Cereal Activity at 121.5 g/H
[1] = 24 h, 1 Day Protectant, read-out: SEPTTR 1DP
[2] = 72 h, 3 Day Curative, read-out: SEPTTR 3DC
[3] = 24 h, 1 Day Protectant, read-out: PUCCRT 1DP
[4] = 72 h, 3 Day Curative, read-out: PUCCRT 3DC

Row | SMILES | pest or weed control at 121.5 g/ha (Zymoseptoria tritici; [1]) [%] | pest or weed control at 121.5 g/ha (Zymoseptoria tritici; [2]) [%] | pest or weed control at 121.5 g/ha (Puccinia triticina; [3]) [%] | pest or weed control at 121.5 g/ha (Puccinia triticina; [4]) [%]
1 | CCOCC(=O)OCOc1c(OC)ccnc1C(=O)N[C@@H](C)C(=O)O[C@@H](C)[C@H](Cc1ccccc1)C(C)(C)OCc1ccccc1 [compound 236] | 80 to 100 | 0 to 80 | 80 to 100 | 0 to 80
2 | CCOCC(=O)OCOc1c(OC)ccnc1C(=O)N[C@@H](C)C(=O)O[C@@H](C)[C@@H](COC)Cc1ccc(F)cc1 [compound 237] | 0 to 80 | 0 to 80 | 80 to 100 | 80 to 100
3 | CCOCC(=O)OCOc1c(OC)ccnc1C(=O)N[C@@H](C)C(=O)O[C@@H](C)[C@H](Cc1ccc(F)cc1)C(C)(C)OC [compound 238] | 0 to 80 | 0 to 80 | 80 to 100 | 0 to 80
4 | COc1ccnc(C(=O)N[C@@H](C)C(=O)O[C@@H](C)[C@@H](COCc2ccccc2)Cc2ccc(F)cc2)c1OCOC(C)=O [compound 239] | 80 to 100 | 0 to 80 | 80 to 100 | 0 to 80
5 | COc1ccnc(C(=O)N[C@@H](C)C(=O)O[C@@H](C)[C@H](Cc2ccc(F)cc2)C(C)(C)OCc2ccccc2)c1OCOC(C)=O [compound 241] | 80 to 100 | 80 to 100 | 80 to 100 | 0 to 80
6 | COC[C@@H](Cc1ccc(F)cc1)[C@H](C)OC(=O)[C@H](C)NC(=O)c1nccc(OC)c1OCOC(C)=O [compound 243] | 0 to 80 | 0 to 80 | 80 to 100 | 80 to 100
7 | COc1ccnc(C(=O)N[C@@H](C)C(=O)O[C@@H](C)[C@H](Cc2ccc(F)cc2)C(C)(C)OC)c1OCOC(C)=O [compound 244] | 0 to 80 | 80 to 100 | 80 to 100 | 80 to 100
8 | COc1ccnc(C(=O)N[C@@H](C)C(=O)O[C@@H](C)[C@H](Cc2ccccc2)C(C)(C)OC)c1OCOC(C)=O [compound 245] |  | 0 to 80 | 80 to 100 | 80 to 100
9 | COc1ccnc(C(=O)N[C@@H](C)C(=O)O[C@@H](C)[C@@H](COCc2ccc(F)cc2)Cc2ccc(F)cc2)c1OC(C)=O [compound 246] | 80 to 100 | 0 to 80 | 0 to 80 | 0 to 80
10 | COc1ccnc(C(=O)N[C@@H](C)C(=O)O[C@@H](C)[C@H](Cc2ccc(F)cc2)C(C)(C)OCc2ccc(F)cc2)c1OC(C)=O [compound 247] | 0 to 80 | 0 to 80 | 0 to 80 | 
11 | COc1ccnc(C(=O)N[C@@H](C)C(=O)O[C@@H](C)[C@@H](COCCC(C)C)Cc2ccccc2)c1OC(C)=O [compound 248] |  | 0 to 80 | 80 to 100 | 0 to 80
12 | COc1ccnc(C(=O)N[C@@H](C)C(=O)O[C@@H](C)[C@@H](COCc2ccc(F)cc2)Cc2ccc(F)cc2)c1OCOC(C)=O [compound 249] | 80 to 100 | 0 to 80 | 80 to 100 | 0 to 80
13 | COc1ccnc(C(=O)N[C@@H](C)C(=O)O[C@@H](C)[C@H](Cc2ccc(F)cc2)C(C)(C)OCc2ccc(F)cc2)c1OCOC(C)=O [compound 250] | 0 to 80 |  | 0 to 80 | 0 to 80
14 | COc1ccnc(C(=O)N[C@@H](C)C(=O)O[C@@H](C)[C@@H](COCCC(C)C)Cc2ccc(F)cc2)c1OCOC(C)=O [compound 251] | 0 to 80 | 80 to 100 | 80 to 100 | 0 to 80
15 | COc1ccnc(C(=O)N[C@@H](C)C(=O)O[C@@H](C)[C@@H](COCCC(C)C)Cc2ccccc2)c1OCOC(C)=O [compound 252] | 80 to 100 | 80 to 100 | 80 to 100 | 80 to 100
16 | CCOCC(=O)OCOc1c(OC)ccnc1C(=O)N[C@@H](C)C(=O)O[C@@H](C)[C@@H](COCc1ccc(F)cc1)Cc1ccc(F)cc1 [compound 253] | 80 to 100 | 0 to 80 | 80 to 100 | 0 to 80
17 | COc1ccnc(C(=O)N[C@@H](C)C(=O)O[C@@H](C)[C@H](Cc2ccccc2)C(C)(C)Oc2ccc(Cl)cc2Cl)c1OCOC(C)=O [compound 254] | 80 to 100 | 80 to 100 | 80 to 100 | 0 to 80
18 | C=C(C)[C@@H](Cc1ccccc1)[C@H](C)OC(=O)[C@H](C)NC(=O)c1nccc(OC)c1OCOC(C)=O [compound 255] | 0 to 80 | 80 to 100 | 80 to 100 | 80 to 100

Row | SMILES | pest or weed control at 121.5 g/ha (Zymoseptoria tritici; [1]) [%] | pest or weed control at 121.5 g/ha (Zymoseptoria tritici; [2]) [%] | pest or weed control at 121.5 g/ha (Puccinia triticina; [3]) [%] | pest or weed control at 121.5 g/ha (Puccinia triticina; [4]) [%]
19 | CCCOC(C)(C)[C@@H](Cc1ccc(OC)cc1)[C@H](C)OC(=O)[C@H](C)NC(=O)c1nccc(OC)c1OCOC(C)=O [compound 257] |  | 0 to 80 | 80 to 100 | 
20 | CCCOC[C@@H](Cc1ccc(OC)c(Cc2ccccc2)c1)[C@H](C)OC(=O)[C@H](C)NC(=O)c1nccc(OC)c1OCOC(C)=O [compound 258] | 0 to 80 | 0 to 80 | 0 to 80 | 0 to 80
21 | CCCOC(C)(C)[C@@H](Cc1ccc(OC)c(Cc2ccccc2)c1)[C@H](C)OC(=O)[C@H](C)NC(=O)c1nccc(OC)c1OCOC(C)=O [compound 259] |  | 0 to 80 | 0 to 80 | 
22 | COc1ccnc(C(=O)N[C@@H](C)C(=O)OC(C)C(Cc2ccccc2)Cc2ccccc2)c1OC(C)=O (stereo partly drawn) [compound 260] | 80 to 100 | 0 to 80 | 80 to 100 | 0 to 80
23 | COc1ccnc(C(=O)N[C@H](C(=O)OC(C)C(Cc2ccccc2)Cc2ccccc2)C(C)C)c1OC(C)=O (stereo partly drawn) [compound 261] | 0 to 80 | 0 to 80 | 80 to 100 | 0 to 80
24 | CC[C@H](NC(=O)c1nccc(OC)c1OC(C)=O)C(=O)OC(C)C(Cc1ccccc1)Cc1ccccc1 (stereo partly drawn) [compound 262] | 0 to 80 |  | 80 to 100 | 0 to 80
25 | COc1ccnc(C(=O)N[C@@H](C)C(=O)OC(C)C(Cc2cccc(F)c2)Cc2cccc(F)c2)c1OC(C)=O (stereo partly drawn) [compound 263] | 0 to 80 | 0 to 80 | 0 to 80 | 0 to 80
26 | COc1ccnc(C(=O)N[C@@H](C)C(=O)OC(C)C(Cc2ccc(F)cc2)Cc2ccc(F)cc2)c1OC(C)=O (stereo partly drawn) [compound 264] | 0 to 80 |  | 0 to 80 | 
27 | COc1ccnc(C(=O)N[C@@H](C)C(=O)OC(C)C(Cc2ccccc2)Cc2ccccc2)c1OCOC(C)=O (stereo partly drawn) [compound 265] | 80 to 100 | 0 to 80 | 80 to 100 | 0 to 80
28 | COc1ccnc(C(=O)N[C@H](C(=O)OC(C)C(Cc2ccccc2)Cc2ccccc2)C(C)C)c1OCOC(C)=O (stereo partly drawn) [compound 266] | 0 to 80 |  | 80 to 100 | 0 to 80
29 | COc1ccnc(C(=O)N[C@@H](C)C(=O)OC(C)C(Cc2cccc(F)c2)Cc2cccc(F)c2)c1OCOC(C)=O (stereo partly drawn) [compound 267] | 0 to 80 | 0 to 80 | 0 to 80 | 
30 | COc1ccnc(C(=O)N[C@@H](C)C(=O)OC(C)C(Cc2ccc(F)cc2)Cc2ccc(F)cc2)c1OCOC(C)=O (stereo partly drawn) [compound 268] | 0 to 80 | 0 to 80 | 80 to 100 | 80 to 100
31 | CC[C@H](NC(=O)c1nccc(OC)c1OCOC(C)=O)C(=O)OC(C)C(Cc1ccccc1)Cc1ccccc1 (stereo partly drawn) [compound 269] | 80 to 100 | 80 to 100 | 80 to 100 | 0 to 80
32 | COc1cccc(CC(Cc2cccc(OC)c2)[C@H](C)OC(=O)[C@H](C)NC(=O)c2nccc(OC)c2OC(C)=O)c1 [compound 270] | 0 to 80 |  | 80 to 100 | 0 to 80
33 | CC[C@H](NC(=O)c1nccc(OC)c1OC(C)=O)C(=O)O[C@@H](C)C(Cc1cccc(OC)c1)Cc1cccc(OC)c1 [compound 271] | 0 to 80 |  | 0 to 80 | 
34 | COc1ccc(CC(Cc2ccc(OC)cc2)[C@H](C)OC(=O)[C@H](C)NC(=O)c2nccc(OC)c2OC(C)=O)cc1 [compound 272] | 80 to 100 |  | 0 to 80 | 0 to 80
35 | CC[C@H](NC(=O)c1nccc(OC)c1OC(C)=O)C(=O)O[C@@H](C)C(Cc1ccc(OC)cc1)Cc1cccc(OC)c1 (stereo partly drawn) [compound 273] | 80 to 100 | 0 to 80 | 0 to 80 | 0 to 80
36 | COc1cccc(CC(Cc2cccc(OC)c2)[C@H](C)OC(=O)[C@H](C)NC(=O)c2nccc(OC)c2OCOC(C)=O)c1 [compound 274] | 0 to 80 |  | 80 to 100 | 0 to 80

Reference: patent US10173971B2, “Picolinamides with fungicidal activity” (DOW AGROSCIENCES LLC, priority 2014, dated 2019)
